{"source": "patent US6723750B2", "about": "“Photodynamic therapy for pre-melanomas” (Allergan, Inc., priority 2002, dated 2004)", "system": "pre-melanoma", "assay": "Photodynamic therapy of pre-melanoma around the excision site after surgical melanoma removal (patient case examples)", "type": "in vivo, human", "description": "The melanoma is surgically removed and the patient is treated for pre-melanoma using photodynamic therapy. The area around the point of excision of the melanoma is contacted with a composition which includes aminolevulinic acid methyl ester at about a 10% (w/w) and a penetrating agent, DMSO, at a concentration of about 10% (w/w). The composition is applied directly to and around the site of excision of the melanoma covering an area of approximately 100 cm^2. The application is repeated once an hour for an 8 hour period. The area is then exposed to light in the wavelength range of about 500 to about 700 nm for approximately 10 hours.\nThe melanoma is surgically removed and the patient is treated for pre-melanoma using photodynamic therapy. The area around the point of excision of the melanoma is contacted with an ointment which includes amino levulinic acid methyl ester at about 5% (w/w) and a penetrating agent, DMSO, at a concentration of about 15% (w/w). The ointment is applied directly to and around the site of excision of the melanoma. The site of application is covered with a semi-permeable membrane for 24 hours after which the application is repeated and again covered for a 24 hour period. The area is then exposed to light in the wavelength range of about 610 nm to about 670 nm for approximately 2 hours once a day for four straight days. […]"}
{"smiles": "COC(=O)CCC(=O)CN", "note": "[aminolevulinic acid methyl ester]", "values": [{"measurement": "cancer status of patient after treatment", "setting": "Example 3: thigh, superficial spreading melanoma removed, about 10% (w/w) with DMSO about 10% (w/w), topical, once an hour for 8 hours, light about 500 to about 700 nm approx. 10 hours, at one year after treatment", "value": "no sign of cancer"}, {"measurement": "cancer status of patient after surgery and treatment", "setting": "Example 6: foot, acral lentiginous melanoma removed, ointment about 5% (w/w) with DMSO about 15% (w/w), two 24 hour applications, light about 610 nm to about 670 nm approx. 2 hours once a day for four days, two years after surgery", "value": "no sign of the cancer"}]}
